Tests used:
stored RBCs = experiment: 2,3-DPG level of stored RBCs after incubation with storage and/or rejuvenating composition (Roche 2,3-DPG kit); assay type: cell-based; details: 60 minutes at 37° C.
Description: A storage and/or rejuvenating composition that includes D-ribose, inosine, sodium pyruvate, and inorganic phosphate, all at a 300 mM concentration as a slurry was prepared. When used to store and/or rejuvenate RBCs, the slurry is diluted 30-fold to a final concentration of 10 mM to form a solution. […] In a study, RBCs were collected and stored for an average of 21 days at 4° C. according to standard blood banking practice. Various RBC storage and/or rejuvenating compositions were added to the 21-day old stored RBCs and held at 37° C. for one to four hours before being tested for 2,3-DPG concentrations. […] A normal 2,3-DPG concentration of RBC immediately upon harvest is 4.0 μmol/ml. […] An increase to 1.0 μmol/ml is considered a significant improvement.
Experimental protocols were designed to find methods to increase the solubility of inosine. […] A storage and/or rejuvenating composition including 300 mM each of inosine, L-arginine, sodium pyruvate, D-ribose, and inorganic phosphate was diluted 30-fold into 21-day old stored RBCs. One set of stored blood samples was incubated for 60 minutes at room temperature and another was incubated for 60 minutes at 37° C.

[1] = Solubility of nucleoside in the composition; assay type: physicochemical; details: equimolecular solution with L-arginine, room temperature

## Nc1nc2c(ncn2[C@@H]2O[C@H](CO)[C@@H](O)[C@H]2O)c(=O)[nH]1 [Guanosine]
Stored RBCs; guanosine with 10 mM each inorganic phosphate and D-ribose, no sodium pyruvate
  Rejuvenation: observed

## OC[C@H]1O[C@@H](n2cnc3c(O)ncnc32)[C@H](O)[C@@H]1O [inosine]
[1]
  concentration at which inosine remained in solution: above 50 mM

## O=C[C@H](O)[C@H](O)[C@H](O)COP(=O)(O)O [ribose-5-phosphate]
Stored RBCs; inosine replaced by varying concentrations of the substance in composition with 10 mM each D-ribose, sodium pyruvate, inorganic phosphate
  Rejuvenation: not observed

Reference: US8980542B2, “Arginine-containing compositions and methods for treating red blood cells” (Viacell, LLC, priority 2010, dated 2015)
